Measured values reported in BindingDB's records for doi:10.1016/j.bioorg.2015.06.006 (Hazara University, 2015).

Each molecule was assayed against Alpha-glucosidase MAL12 (Saccharomyces cerevisiae (strain ATCC 204508 / S288c), UniProt P53341) (assay: Alpha-glucosidase Assay). Conditions: pH 6.8.
Protocol: Total volume of 100 µL reaction mixture contained 70 µL 50 mM phosphate buffer pH 6.8, 10 µL test compound (0.5 mM in methanol) followed by the addition of 10 µL enzyme solution (0.057 units) in the buffer. The contents were mixed, pre-incubated for 10 min at 37 °C and pre-read at 400 nm. The reaction was initiated by the addition of 10 µL of 0.5 mM substrate (p-nitrophenyl glucopyranoside). After 30 min of incubation at 37 °C, absorbance of p-nitrophenol released was measured. Acarbose was used as positive control.

Chain of Alpha-glucosidase MAL12 (P53341 whole entry): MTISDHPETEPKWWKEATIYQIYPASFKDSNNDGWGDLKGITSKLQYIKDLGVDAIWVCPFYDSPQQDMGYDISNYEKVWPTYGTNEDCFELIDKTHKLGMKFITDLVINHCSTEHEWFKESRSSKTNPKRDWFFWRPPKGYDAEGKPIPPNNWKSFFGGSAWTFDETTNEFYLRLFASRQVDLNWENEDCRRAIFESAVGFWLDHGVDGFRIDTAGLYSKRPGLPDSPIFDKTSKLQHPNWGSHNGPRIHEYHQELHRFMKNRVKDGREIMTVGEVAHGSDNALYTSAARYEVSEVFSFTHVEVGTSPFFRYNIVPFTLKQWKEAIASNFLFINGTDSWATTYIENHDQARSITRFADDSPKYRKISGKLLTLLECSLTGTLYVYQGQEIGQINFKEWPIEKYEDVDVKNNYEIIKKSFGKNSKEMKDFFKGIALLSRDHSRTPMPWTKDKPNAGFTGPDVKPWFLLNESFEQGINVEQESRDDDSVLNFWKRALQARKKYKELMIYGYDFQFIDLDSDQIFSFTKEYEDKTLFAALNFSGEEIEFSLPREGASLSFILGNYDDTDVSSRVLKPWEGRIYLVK

SMILES	IC50
C/C(=N\Nc1nc(-c2ccc(Cl)cc2)cs1)c1ccc(N2CCCCC2)cc1 [(E)-4-(4-Chlorophenyl)-2-(2-(1-(4-(piperidin-1-yl)phenyl)-ethylidene)hydrazinyl)thiazole (4)]	388 µM
O=[N+]([O-])c1ccccc1/C=N/Nc1nc(-c2ccc(Cl)cc2)cs1 [(E)-4-(4-Chlorophenyl)-2-(2-(2-nitrobenzylidene)hydrazinyl)-thiazole (3)]	239 µM
COc1ccc(-c2csc(N/N=C/c3ccc(O)c(O)c3)n2)cc1 [(E)-4-((2-(4-(4-Methoxyphenyl)thiazol-2-yl)hydrazono)-methyl)benzene-1,2-diol (21)]	46.4 µM
Clc1ccc(-c2csc(N/N=C/c3ccc(/C=N/Nc4ncc(-c5ccc(Cl)cc5)s4)cc3)n2)cc1 [5-(4-chlorophenyl)-2-((E)-2-(4-((E)-(2-(4-(4-chlorophenyl)-thiazol-2-yl)hydrazono)methyl)benzylidene)hydrazinyl)thiazole (10)]	342 µM
Clc1ccc(-c2csc(N/N=C\c3cccc(/C=N/Nc4nc(-c5ccc(Cl)cc5)cs4)c3)n2)cc1 [1-((E)-(2-(4-(4-chlorophenyl)thiazol-2-yl)hydrazono)methyl)-3-((Z)-(2-(4-(4-chlorophenyl)thiazol-2-yl)hydrazono)methyl)benzene (9)]	68.5 µM
Clc1ccc(-c2csc(N/N=C/c3ccc4ccccc4c3)n2)cc1 [(E)-4-(4-Chlorophenyl)-2-(2-(naphthalene-2-yl-methylene)hydrazinyl)thiazole (6)]	175 µM
COc1ccc(-c2csc(N/N=C/c3c4ccccc4cc4ccccc34)n2)cc1 [(E)-2-(2-(Anthracen-9-ylmethylene)hydrazinyl)-4-(4-methoxyphenyl)thiazole (13)]	192 µM
COc1ccc(/C=N/Nc2nc(-c3ccc(Cl)cc3)cs2)cc1O [(E)-5-((2-(4-(4-Chlorophenyl)thiazole-2-yl)hydrazono)-methyl)-2-methoxy-phenol (11)]	176 µM
CN(C)c1ccc(/C=N/Nc2nc(-c3ccc(Cl)cc3)cs2)cc1 [(E)-4-((2-(4-(4-Chlorophenyl)thiazol-2-yl)hydrazono)methyl)-N,N-dimethyl-aniline (5)]	205 µM
Clc1ccc(-c2csc(N/N=C/c3ccc(OCc4ccccc4)cc3)n2)cc1 [(E)-2-(2-(4-(Benzyloxy)benzylidene)hydrazinyl)-4-(4-chlorophenyl)thiazole (7)]	36.8 µM
COc1ccc(-c2csc(N/N=C/c3ccc(/C=N/Nc4ncc(-c5ccc(OC)cc5)s4)cc3)n2)cc1 [5-(4-methoxyphenyl)-2-((E)-2-(4-((E)-(2-(4-(4-methoxyphenyl)thiazol-2-yl)hydrazono)methyl)benzylidene)-hydrazinyl)thiazole (19)]	226 µM
C/C(=N\Nc1nc(-c2ccc(Cl)cc2)cs1)c1ccc([N+](=O)[O-])cc1Br [(E)-2-(2-(1-(2-Bromo-4-nitrophenyl)ethylidene)hydrazinyl)-4-(4-chlorophenyl)thiazole (2)]	43.3 µM
COc1ccc(-c2csc(N/N=C/c3ccc(OCc4ccccc4)cc3)n2)cc1 [(E)-2-(2-(4-(Benzyloxy)benzylidene)hydrazinyl)-4-(4-methoxyphenyl)thiazole (16)]	99.2 µM
COc1ccc(-c2csc(N/N=C/c3ccc(N(C)C)cc3)n2)cc1 [(E)-4-((2-(4-(4-Methoxyphenyl)thiazol-2-yl)hydrazono)-methyl)-N,N-dimethylaniline (14)]	146 µM
COc1ccc(-c2csc(N/N=C/c3cc(C(C)(C)C)c(O)c(C(C)(C)C)c3)n2)cc1 [(E)-2,6-Di-tert-butyl-4-((2-(4-(4-Methoxyphenyl)thiazol-2-yl)hydrazono)-methyl)phenol (17)]	123 µM
CC(C)(C)c1cc(/C=N/Nc2nc(-c3ccc(Cl)cc3)cs2)cc(C(C)(C)C)c1O [(E)-2,6-Di-t-butyl-4-((2-(4-(4-Chlorophenyl)thiazole-2-yl)-hydrazono)methyl)-phenol (8)]	18.2 µM
COc1ccc(-c2csc(N/N=C/c3ccc4ccccc4c3)n2)cc1 [(E)-4-(4-Methoxyphenyl)-2-(2-(naphthalen-2-yl-methylene)-hydrazinyl)thiazole (15)]	194 µM
O=[N+]([O-])c1cccc(/C=N/Nc2nc(-c3ccc(Cl)cc3)cs2)c1 [(E)-4-(4-Chlorophenyl)-2-(2-(3-nitrobenzylidene)hydrazinyl)-thiazole (1)]	220 µM
COc1ccc(-c2csc(N/N=C(\C)c3cccc([N+](=O)[O-])c3)n2)cc1 [(E)-4-(4-Methoxyphenyl)-2-(2-(1-(3-nitrophenyl)-ethylidene)hydrazinyl)thiazole (12)]	424 µM
COc1ccc(-c2csc(N/N=C\c3cccc(/C=N/Nc4nc(-c5ccc(OC)cc5)cs4)c3)n2)cc1 [1-((E)-(2-(4-(4-Methoxyphenyl)thiazol-2-yl)hydrazono)-methyl)-3-((Z)-(2-(4-(4-methoxyphenyl)thiazol-2-yl)hydrazono)-methyl)benzene (18)]	55.4 µM
COc1ccc(-c2csc(N/N=C/c3ccc(OC)c(O)c3)n2)cc1 [(E)-2-Methoxy-5-((2-(4-(4-methoxyphenyl)thiazol-2-yl)-hydrazono)methyl)-phenol (20)]	176 µM
